From ChEMBL document CHEMBL1135348, “Synthesis and anticancer evaluation of vitamin K(3) analogues” (Bioorg Med Chem Lett, 2002)

How the values were obtained:
MES-SA = experiment: Concentration required for 50% inhibition of growth in human uterine sarcoma (MES-SA) cell line was determined; format: functional, cell-based
Detroit 551 [1] = experiment: Concentration required for 50% inhibition of growth in normal human embryonic skin fibroblast (Detroit551c) cell line was determined; format: functional, cell-based
SW480 = experiment: Concentration required for 50% inhibition of growth in human colon adenocarcinoma (SW-480) cell line.; format: functional, cell-based
NPC-TW-039 = experiment: Concentration required for 50% inhibition of growth in human nasopharyngeal carcinoma (TW-039) cell line was determined
MKN-45 = experiment: Concentration required for 50% inhibition of growth in human stomach adenocarcinoma (MKN45) cell line was determined; format: functional, cell-based
MCF7 = experiment: Concentration required for 50% inhibition of growth in mammary gland breast adenocarcinoma (MCF-7) cell line was determined; format: functional, cell-based; settings: Homo sapiens
HepG2 = experiment: Concentration required for 50% inhibition of growth in human liver hepatoblastoma (Hep G2) cell line was determined; format: functional, cell-based
WI-38 = experiment: Concentration required for 50% inhibition of growth in normal human lung fibroblast (WI-38 cell line) cell line was determined; format: functional, cell-based
A549 = experiment: Concentration required for 50% inhibition of growth in human lung carcinoma cell line was determined; format: functional, cell-based
[2] = Concentration required for 50% inhibition of growth in human multidrug resistance uterine sarcoma (MES-SA/Dx5 ) cell line was determined; format: functional, cell-based
[3] = Dose required for 50% inhibition of growth of Hep3B cells; format: functional, Hep 3B2; settings: Homo sapiens, read-out: ID50 (the source's name)
Detroit 551 [4] = experiment: Concentration required for 50% inhibition of growth in normal human embryonic skin fibroblast cell line was determined; format: functional, cell-based

IC50 (SW480)	IC50 (NPC-TW-039)	IC50 (MKN-45)	IC50 (MCF7)	IC50 (HepG2)	IC50 (A549)	SMILES	IC50 (MES-SA)	IC50 (Detroit 551 [1])	IC50 (WI-38)	IC50 [2]	IC50 [3]	IC50 (Detroit 551 [4])
4.85 µM	> 10 µM	6.4 µM	5.16 µM	9.53 µM	> 10 µM	CC1=C(SCCCO)C(=O)c2ccccc2C1=O	> 10 µM	5.26 µM	> 10 µM	> 10 µM	–	–
–	–	–	–	–	–	CCCCC1=C(C)C(=O)c2ccccc2C1=O	–	–	–	–	78 µM	–
4.51 µM	> 10 µM	6.78 µM	5.78 µM	> 10 µM	> 10 µM	CC1=C(SCCCCO)C(=O)c2ccccc2C1=O	> 10 µM	–	> 10 µM	> 10 µM	–	7.57 µM
> 10 µM	> 10 µM	> 10 µM	9.28 µM	> 10 µM	> 10 µM	CC1=C(SCCCCCCO)C(=O)c2ccccc2C1=O	> 10 µM	–	> 10 µM	> 10 µM	–	> 10 µM
–	–	–	–	–	–	CCCCCCCCSC1=C(C)C(=O)c2ccccc2C1=O	–	–	–	–	100 µM	–
5.14 µM	> 10 µM	5.16 µM	5.19 µM	8.4 µM	> 10 µM	CC1=C(SCCO)C(=O)c2ccccc2C1=O	> 10 µM	8.17 µM	7.37 µM	> 10 µM	5.6 µM	–
–	–	–	–	–	–	CCCCOC1=C(C)C(=O)c2ccccc2C1=O	–	–	–	–	55 µM	–
–	–	–	–	–	–	CCCCCCCCOC1=C(C)C(=O)c2ccccc2C1=O	–	–	–	–	140 µM	–
5.53 µM	> 10 µM	5.64 µM	> 10 µM	> 10 µM	> 10 µM	CC1=C(SC(C)C(C)O)C(=O)c2ccccc2C1=O (stereo not drawn)	> 10 µM	–	> 10 µM	> 10 µM	–	> 10 µM
–	–	–	–	–	–	CCCSC1=C(C)C(=O)c2ccccc2C1=O	–	–	–	–	14 µM	–
–	–	–	–	–	–	CCCCSC1=C(C)C(=O)c2ccccc2C1=O	–	–	–	–	15 µM	–
5.19 µM	> 10 µM	3.92 µM	4.61 µM	5.59 µM	4.74 µM	CC1=C(SCC(C)O)C(=O)c2ccccc2C1=O (racemic)	7.11 µM	4.61 µM	5.06 µM	5.1 µM	–	–
–	–	–	–	–	–	CC1=CC(=O)c2ccccc2C1=O [MENADIONE]	–	–	–	–	10 µM	–
